Results on 53 compounds are retold here after patent USRE49735E1 (BRISTOL-MYERS SQUIBB COMPANY, priority 2010, dated 2023).

“And” between values parts separate entries of the source, which are not always exact repeats. Equal entries are not always repeated.

For the assay, the target named is human mGluR5A (Homo sapiens, UniProt P41594). Kind of assay: mGluR5 FLIPR Assay. Type of assay: cell-based. As to conditions: positive modulator activity; HEK293 (ZF) cells with human mGluR5A and rat GLAST; Ca++ response to ~EC10 glutamate.
Sequence of human mGluR5A (P41594 21-1180 isoform P41594-2): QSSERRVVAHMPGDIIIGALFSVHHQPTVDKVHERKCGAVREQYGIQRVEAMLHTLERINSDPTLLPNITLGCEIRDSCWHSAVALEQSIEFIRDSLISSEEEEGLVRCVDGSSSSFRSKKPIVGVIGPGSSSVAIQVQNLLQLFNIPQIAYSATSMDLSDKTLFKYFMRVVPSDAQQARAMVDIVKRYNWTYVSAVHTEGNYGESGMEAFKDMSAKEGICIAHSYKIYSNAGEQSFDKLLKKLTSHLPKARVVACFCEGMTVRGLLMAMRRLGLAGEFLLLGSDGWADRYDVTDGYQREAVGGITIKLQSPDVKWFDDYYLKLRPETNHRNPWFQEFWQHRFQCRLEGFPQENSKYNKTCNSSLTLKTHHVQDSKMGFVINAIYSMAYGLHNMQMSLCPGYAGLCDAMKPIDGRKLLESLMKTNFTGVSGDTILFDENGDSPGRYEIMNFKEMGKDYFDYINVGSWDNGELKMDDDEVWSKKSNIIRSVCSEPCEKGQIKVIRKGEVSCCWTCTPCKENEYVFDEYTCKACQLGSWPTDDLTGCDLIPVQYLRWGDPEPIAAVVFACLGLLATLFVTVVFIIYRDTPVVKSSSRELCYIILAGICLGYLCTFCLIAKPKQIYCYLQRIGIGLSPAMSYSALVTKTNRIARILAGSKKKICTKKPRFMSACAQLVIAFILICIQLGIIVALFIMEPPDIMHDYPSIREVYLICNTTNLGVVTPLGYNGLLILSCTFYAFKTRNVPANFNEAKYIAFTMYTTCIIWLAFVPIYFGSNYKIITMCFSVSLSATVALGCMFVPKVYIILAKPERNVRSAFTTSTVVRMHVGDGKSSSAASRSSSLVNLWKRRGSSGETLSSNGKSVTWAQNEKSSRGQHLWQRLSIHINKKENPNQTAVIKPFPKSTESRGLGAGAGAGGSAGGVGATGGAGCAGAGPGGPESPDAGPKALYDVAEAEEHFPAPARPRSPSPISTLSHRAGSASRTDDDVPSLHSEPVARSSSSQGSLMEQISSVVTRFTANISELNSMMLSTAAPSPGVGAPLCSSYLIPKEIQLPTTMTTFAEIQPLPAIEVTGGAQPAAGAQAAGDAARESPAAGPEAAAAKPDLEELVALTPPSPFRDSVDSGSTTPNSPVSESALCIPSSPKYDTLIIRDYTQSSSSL

As usually defined, the EC50 is the concentration needed to bring the measured effect to its halfway point. Low readings indicate a more potent agent, high ones a less potent agent. `O=C1N[C@@H](c2cncc(C#Cc3ccccc3)c2)[C@@H](c2ccnnc2)O1` (single isomer, unassigned) [Example 323] came in with an EC50 greater than 1000 nM.
Then `O=C1N[C@H](c2cncc(C#Cc3cccc(F)c3)c2)[C@@H](c2cccc(F)c2)O1` [Example 400, (4R,5R)-5-(3-fluorophenyl)-4-(5-((3-fluorophenyl)ethynyl)pyridin-3-yl)oxazolidin-2-one], with less than 100 nM.
Then `O=C1N[C@H](c2cccc(C#Cc3ccccc3)n2)[C@@H](c2ccc(F)cc2)O1` (single isomer, unassigned) [Example 135], with < 100 nM and 8.5 nM.
`O=C1N[C@@H](c2ccnc(C#Cc3ccccc3)n2)[C@H](c2cccc(F)c2)O1` [Example 276]: the EC50 is 100 to 1000 nM and 468 nM.
Then `COc1cccc([C@H]2OC(=O)N[C@@H]2c2cccc(C#Cc3ccc(OC(F)(F)F)cc3)c2)c1` [Example 268], with greater than 1000 nM; and `COc1cccc([C@@H]2OC(=O)N[C@H]2c2cccc(C#Cc3ccc(C(F)(F)F)cc3)c2)c1` (stereo in doubt) [Example 120, (4S,5S)-5-(3-methoxyphenyl)-4-(3-((4-(trifluoromethyl)phenyl)ethynyl)phenyl)oxazolidin-2-one], with greater than 1000 nM; and `O=C1N[C@H](c2cccc(C#Cc3cncc(F)c3)c2)[C@@H](c2cccnc2)O1` [Example 237], with 100 to 1000 nM.
Then `CNc1ncc(C#Cc2cccc([C@H]3NC(=O)O[C@@H]3c3cccc(OC)c3)c2)cn1` [Example 93], with greater than 1000 nM; and `COc1ccccc1[C@H]1OC(=O)N[C@H]1c1cncc(C#Cc2ccccc2)c1` (single isomer, unassigned) [Example 336], with greater than 1000 nM.
Regarding `N#Cc1cccc(C#Cc2cncc([C@H]3NC(=O)O[C@@H]3c3ccc(F)c(F)c3)c2)c1` [Example 176], the half-maximal effective concentration (EC50) was < 100 nM and 5.2 nM.
For the compound `COc1cccc([C@@H]2OC(=O)N[C@H]2c2cccc(C#Cc3ccc(F)cc3)c2)c1` [Example 132, (4S,5S)-4-(3-((4-fluorophenyl)ethynyl)phenyl)-5-(3-methoxyphenyl)oxazolidin-2-one], the EC50 was greater than 1000 nM.
Then `COc1cccc([C@H]2OC(=O)N[C@@H]2c2ccnc(C#Cc3ccccc3)c2)c1` (single isomer, unassigned) [Example 36], with greater than 1000 nM; and `O=C1N[C@H](c2cc(C#Cc3ccccc3)cnc2F)[C@@H](c2ccccc2F)O1` (single isomer, unassigned) [Example 375], with less than 100 nM; and `O=C1N[C@@H](c2cccc(C#Cc3ccccc3)c2)[C@H](c2ccc(F)cc2)O1` [Example 115, (4S,5S)-5-(4-fluorophenyl)-4-(3-(phenylethynyl)phenyl)oxazolidin-2-one], with greater than 1000 nM.
Then `COc1cccc([C@H]2OC(=O)N[C@@H]2c2cccc(C#Cc3cc4ccccc4cn3)c2)c1` [Example 67, (4R,5R)-4-(3-(Isoquinolin-3-ylethynyl)phenyl)-5-(3-methoxyphenyl)oxazolidin-2-one], with greater than 1000 nM.
Turning to `COc1cccc([C@H]2OC(=O)N[C@@H]2c2cccc(C#Cc3ccc(F)nc3)c2)c1` [Example 69], the half-maximal effective concentration (EC50) was less than 100 nM.
Then `O=C1N[C@H](c2cccc(C#Cc3ccccc3)c2)[C@@H](c2ccncn2)O1` [Example 239], with less than 100 nM.
In the case of `C[C@]1(c2ccc(F)cc2)OC(=O)N[C@@H]1c1cncc(C#Cc2ccccc2)c1` [Example 203], the EC50 was < 100 nM and 2.5 nM.
Then `COc1cccc([C@H]2OC(=O)N[C@@H]2c2cccc(C#Cc3ccncn3)c2)c1` [Example 74, (4R,5R)-5-(3-Methoxyphenyl)-4-(3-(pyrimidin-4-ylethynyl)phenyl)oxazolidin-2-one], with greater than 30000 nM.
Then `O=C1N[C@H](c2cncc(C#Cc3ccccc3)c2)[C@@H](c2cccc(Cl)c2Cl)O1` (single isomer, unassigned) [Example 330], with less than 100 nM; and `O=C1N[C@@H](c2cncc(C#Cc3cccnc3)c2)[C@H](c2ccc(F)cc2)O1` (single isomer, unassigned) [Example 42], with greater than 1000 nM.
As to `O=C1N[C@H](c2cncc(C#Cc3cccnc3)c2)[C@@H](c2cc(F)ccc2F)O1` [Example 186], the EC50 is less than 100 nM.
Then `O=C1N[C@H](c2cncc(C#Cc3ccc(F)cc3)c2)[C@@H](c2cc(F)ccc2F)O1` [Example 279], with less than 100 nM.
Then `C[C@@]1(c2cccc(C#Cc3ccccc3)n2)NC(=O)O[C@H]1c1ccccc1F` (single isomer, unassigned) [Example 379], with greater than 1000 nM; and `O=C1N[C@H](c2cccc(C#Cc3ccnc(F)c3)n2)[C@@H](c2ccc(F)cc2)O1` (single isomer, unassigned) [Example 372], with less than 100 nM.
In turn, `COc1cccc([C@H]2OC(=O)N[C@@H]2c2cccc(C#Cc3ccc(F)cc3)n2)c1` [Example 7, (4R,5R)-4-(6-((4-Fluorophenyl)ethynyl)pyridin-2-yl)-5-(3-methoxyphenyl)oxazolidin-2-one] came in with an EC50 greater than 1000 nM.
The compound `O=C1N[C@@H](c2cncc(C#Cc3ccccn3)c2)[C@H](c2cc(F)cc(F)c2)O1` [Example 191] yielded an EC50 greater than 1000 nM.
Then `COc1cccc([C@H]2OC(=O)N[C@@H]2c2cccc(C#Cc3ccc(SC)cc3)c2)c1` [Example 260], with greater than 1000 nM; and `COc1cccc([C@H]2OC(=O)N[C@@H]2c2cccc(C#Cc3ccccc3C#N)c2)c1` [Example 90, 2-((3-((4R,5R)-5-(3-Methoxyphenyl)-2-oxooxazolidin-4-yl)phenyl)ethynyl)benzonitrile], with greater than 1000 nM.
Then `O=C1N[C@H](c2cncc(C#Cc3cccnc3)c2)[C@@H](c2ccc(F)cc2F)O1` [Example 184], with less than 100 nM; and `O=C1N[C@H](c2cncc(C#Cc3ccnc(F)c3)c2)[C@@H](c2ccc(F)cc2)O1` [Example 214], with less than 100 nM; and `O=C1N[C@H](c2cncc(C#Cc3cncc(F)c3)c2)[C@@H](c2cccc(F)c2)O1` [Example 256], with less than 100 nM.
Then `N#Cc1cncc(C#Cc2cncc([C@H]3NC(=O)O[C@@H]3c3ccc(F)cc3)c2)c1` [Example 211], with less than 100 nM.
The compound `O=C1N[C@@H](c2cncc(C#Cc3cncc(F)c3)c2)[C@H](c2cccnc2)O1` [Example 202] returned an EC50 greater than 1000 nM.
Then `COc1cccc([C@H]2OC(=O)N[C@@H]2c2cccc(C#Cc3ccc4ccccc4n3)c2)c1` [Example 66, (4R,5R)-5-(3-Methoxyphenyl)-4-(3-(quinolin-2-ylethynyl)phenyl)oxazolidin-2-one], with 100 to 1000 nM; and `O=C1N[C@@H](c2cccc(C#Cc3ccccc3)n2)[C@H](c2ccccc2F)O1` (single isomer, unassigned) [Example 308], with greater than 1000 nM.
In the case of `O=C1N[C@H](c2ccnc(C#Cc3ccccc3)c2)[C@@H](c2ccccc2)O1` [Example 20, (4R,5R)-5-Phenyl-4-(2-(phenylethynyl)pyridin-4-yl)oxazolidin-2-one], the EC50 is less than 100 nM.
Then `COC(=O)c1cccc(C#Cc2cccc([C@H]3NC(=O)O[C@@H]3c3cccc(OC)c3)c2)c1` [Example 267], with 100 to 1000 nM.
Then `C[C@]1(c2cncc(C#Cc3ccccc3)c2)NC(=O)O[C@@H]1c1ccccc1` (single isomer, unassigned) [Example 138], with < 100 nM and 0.43 nM.
`O=C1N[C@@H](c2cncc(C#Cc3ccccc3)c2)[C@H](c2ccc(F)cc2)O1` (single isomer, unassigned) [Example 40] showed an EC50 greater than 1000 nM.
Then `O=C1N[C@H](c2cccc(C#Cc3ccc(F)cc3)n2)[C@@H](c2ccccc2)O1` (single isomer, unassigned) [Example 16], with less than 100 nM; and `COc1cccc([C@H]2OC(=O)N[C@@H]2c2cccc(C#Cc3csc(C)n3)c2)c1` [Example 52, (4R,5R)-5-(3-Methoxyphenyl)-4-(3-((2-methylthiazol-4-yl)ethnyl)phenyl)oxazolidin-2-one], with greater than 30000 nM.
As to `COc1cccc([C@H]2OC(=O)N[C@@H]2c2cccc(C#Cc3cccnc3)c2)c1` [Example 46], the EC50 is less than 100 nM.
Then `O=C1N[C@H](c2cncc(C#Cc3ccccc3)c2)[C@@H](c2ccncn2)O1` (single isomer, unassigned) [Example 318], with less than 100 nM; and `O=C1N[C@H](c2cccc(C#Cc3ccccc3)c2)[C@@H](c2ccccc2)O1` (single isomer, unassigned) [Example 95], with less than 100 nM.
Then `O=C1N[C@@H](c2cc(C#Cc3cccc(Cl)c3)ccn2)[C@H](c2ccc(F)cc2)O1` (single isomer, unassigned) [Example 348], with greater than 1000 nM; and `O=C1N[C@@H](c2cccc(C#Cc3ccccc3)n2)[C@H](c2ccccc2)O1` (single isomer, unassigned) [Example 11], with greater than 1000 nM.
Then `COc1cccc([C@H]2OC(=O)N[C@@H]2c2cccc(C#Cc3ccc(F)cc3)c2)c1` [Example 131, (4R,5R)-4-(3-((4-fluorophenyl)ethynyl)phenyl)-5-(3-methoxyphenyl)oxazolidin-2-one], with less than 100 nM; and `O=C1N[C@H](c2cccc(C#Cc3ccccc3)c2)[C@H](c2cnccn2)O1` [Example 247], with greater than 1000 nM.
`O=C1N[C@H](c2cccc(C#Cc3ccccc3)n2)[C@@H](c2cccnc2)O1` (single isomer, unassigned) [Example 367]: the EC50 was greater than 1000 nM.
Then `C[C@]1(c2ccc(F)cc2)OC(=O)N[C@H]1c1cncc(C#Cc2ccccc2)c1` [Example 206], with 100 to 1000 nM; and `O=C1N[C@@H](c2cccc(C#Cc3ccccc3)c2)[C@H](c2cccnc2)O1` (relative stereo) [Example 116, Trans-4-(3-(phenylethynyl)phenyl)-5-(pyridin-3-yl)oxazolidin-2-one], with less than 100 nM; and `COc1cccc([C@H]2OC(=O)N[C@@H]2c2cccc(C#Cc3cccnc3F)c2)c1` [Example 79, (4R,5R)-4-(3-((2-Fluoropyridin-3-yl)ethynyl)phenyl)-5-(3-methoxyphenyl)oxazolidin-2-one], with less than 100 nM.
